Source: patent US12552773B2, “Compound for specifically enhancing spatial coupling degree of TRPV4-KCa2.3 complex and use thereof” (Jiangnan University, priority 2020, dated 2026)
One block for each molecule: values may come before it.

Columns and labels:
TRPV4-KCa2.3 complex = biological target: T1, TRPV4-KCa2.3 complex (Mus musculus, UniProt P58391+Q9EPK8); test: In vitro coupling activity test (FRET, immunostained endothelial cells); format: cell-based, mice; settings: for Fret efficiency value (average value): endothelial cells, 10 μmol/L, 24 hours, higher value = higher degree of coupling; for coupling between the TRPV4 and the KCa2.3: high-salt state, cells incubated 24 hours, compared with JNC-440
T1 construct: endogenous in cells
T1 sequence (Q9EPK8 whole entry): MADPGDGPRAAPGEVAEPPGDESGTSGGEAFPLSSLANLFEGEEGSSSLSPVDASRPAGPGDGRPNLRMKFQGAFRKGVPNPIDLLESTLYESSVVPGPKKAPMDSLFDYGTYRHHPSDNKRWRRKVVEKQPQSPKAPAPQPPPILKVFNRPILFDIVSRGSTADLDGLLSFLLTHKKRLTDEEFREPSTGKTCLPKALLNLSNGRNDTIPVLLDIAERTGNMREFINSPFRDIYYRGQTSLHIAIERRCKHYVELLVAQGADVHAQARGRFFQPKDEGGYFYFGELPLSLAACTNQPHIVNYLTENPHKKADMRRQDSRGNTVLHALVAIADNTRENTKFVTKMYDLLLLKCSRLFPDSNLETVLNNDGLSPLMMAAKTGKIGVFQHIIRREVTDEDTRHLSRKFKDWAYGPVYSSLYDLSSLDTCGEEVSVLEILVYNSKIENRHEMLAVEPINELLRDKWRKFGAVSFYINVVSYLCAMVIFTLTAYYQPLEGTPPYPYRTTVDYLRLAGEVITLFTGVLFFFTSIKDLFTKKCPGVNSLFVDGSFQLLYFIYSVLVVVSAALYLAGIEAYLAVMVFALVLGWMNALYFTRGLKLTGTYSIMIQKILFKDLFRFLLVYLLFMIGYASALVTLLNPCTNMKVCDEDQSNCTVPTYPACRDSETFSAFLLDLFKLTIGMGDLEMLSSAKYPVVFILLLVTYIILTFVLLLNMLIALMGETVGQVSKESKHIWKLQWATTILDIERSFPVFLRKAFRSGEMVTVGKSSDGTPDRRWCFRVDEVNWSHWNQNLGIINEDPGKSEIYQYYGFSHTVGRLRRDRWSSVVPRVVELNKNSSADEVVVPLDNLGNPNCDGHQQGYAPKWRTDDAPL
T1 sequence (P58391 whole entry): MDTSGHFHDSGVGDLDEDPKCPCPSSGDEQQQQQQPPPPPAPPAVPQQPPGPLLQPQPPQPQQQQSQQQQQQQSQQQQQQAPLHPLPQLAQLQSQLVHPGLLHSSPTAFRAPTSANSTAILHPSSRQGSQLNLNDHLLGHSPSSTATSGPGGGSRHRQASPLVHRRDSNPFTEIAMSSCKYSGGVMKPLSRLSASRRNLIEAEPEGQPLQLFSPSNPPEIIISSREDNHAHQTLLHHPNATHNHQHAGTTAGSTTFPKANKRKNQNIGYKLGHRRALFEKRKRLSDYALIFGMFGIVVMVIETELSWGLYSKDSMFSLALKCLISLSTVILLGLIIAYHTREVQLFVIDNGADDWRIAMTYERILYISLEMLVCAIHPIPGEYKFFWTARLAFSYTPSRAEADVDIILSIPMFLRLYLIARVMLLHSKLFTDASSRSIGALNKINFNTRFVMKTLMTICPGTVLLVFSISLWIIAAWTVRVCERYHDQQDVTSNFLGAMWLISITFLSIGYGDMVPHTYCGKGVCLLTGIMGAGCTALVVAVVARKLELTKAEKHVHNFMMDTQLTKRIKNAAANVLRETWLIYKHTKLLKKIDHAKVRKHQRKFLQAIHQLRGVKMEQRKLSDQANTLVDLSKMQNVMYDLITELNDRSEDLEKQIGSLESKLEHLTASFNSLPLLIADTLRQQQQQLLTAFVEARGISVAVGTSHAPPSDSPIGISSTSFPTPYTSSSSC
Experimental: Endothelial cells were cultured for 3-5 days, separately incubated with the compounds in Examples 1, 2, 3, 4, 5 and 6 with a concentration of 10 μmol/L for 24 hours, fixed with 4% paraformaldehyde for 30 minutes, permeabilized with PBS containing 0.2% Triton X-100 for 10 minutes and blocked with PBS containing 5% BSA for 1 hour. Then, the cells were sequentially stained with TRPV4-550 as a primary antibody, KCa2.3 as a coupled secondary antibody (Life Technologies) and DAPI (Vector Laboratories, Burlingame, CA, USA). A laser confocal microscope was used for photographing, and a Fret value was calculated.
A higher value indicated a higher degree of coupling between the two proteins.
With reference to FIG. 3, the compound obtained in Example 1 was abbreviated as compound 365; the compound obtained in Example 2 was abbreviated as compound 366; the compound obtained in Example 3 was abbreviated as compound 491; the compound obtained in Example 4 was abbreviated as compound 437; the compound obtained in Example 5 was abbreviated as compound 455; and the compound obtained in Example 6 was abbreviated as compound 469. HS referred to hypertensive mice induced by a high-salt diet, and WT referred to normal wild-type mice.

[1] = In vitro metabolism in liver microsomes, mouse; format: in vitro ADME; settings: for In vivo inherent clearance rate: from mouse liver microsomes; for half-life at 0.193 µM: mouse, liver microsomes, pH 7.4, mouse liver microsomes; for microsomal CLint at 0.193 µM: pH 7.4, read-out: Inherent clearance rate in liver microsomes
Experimental: (§1) An in vitro metabolic incubation system with a total volume of 207 μL and an organic solvent less than 1% included 188 μL of a 0.1 mol/L PBS buffer (pH 7.4) and 12 μL of an NADPH generation system (prepared by mixing 10 μL of a solution A and 2 μL of a solution B on an ice bath before use). 2 μL of the compounds in Examples 4 and 5 with a concentration of 20 μm/L were added into the incubation system on an ice bath for pre-incubation in a water bath at 37° C. for 5 minutes. Then, 5 μL of liver microsomal enzymes of different species were added on an ice bath for uniform mixing and incubation in a water bath at 37° C. 400 μl of glacial acetonitrile (containing 50 ng/ml of an internal standard (caffeine)) was separately added at 0 minute, 10 minutes, 30 minutes, 60 minutes, 90 minutes, 120 minutes, 180 minutes, 360 minutes and 480 minutes to stop a reaction, and a parallel experiment was carried out 3 times. A rotation speed was 13,000 rpm/15 min. A supernatant was taken and detected by using an ultra-high performance liquid chromatography-quadrupole time-of-flight mass spectrometer.

[2] = In vitro metabolism in liver microsomes of different species (overall statement); format: in vitro ADME; settings: for metabolism differences between species: liver microsomes of different species; for half-life at 0.193 µM: mouse, rat, human, dog (Example 4), human (Example 5), liver microsomes, pH 7.4, liver microsomes, overall over the species
Experimental: as §1

[3] = tested on: Mesenteric primary endothelial cells; test: Determination of intracellular K+ (PBFI fluorescence ratio); format: cell-based; settings: high-salt state, 10 μmol/L, 24 hours, versus no drug
Experimental: Mesenteric primary endothelial cells were cultured for 3-5 days and separately incubated with the compounds in Examples 4, 5 and 6 with a concentration of 10 μmol/L for 24 hours. A culture medium was removed. The cells and NPSS containing PBFI were incubated in an incubator at a ratio of 1:200 at 37° C. in a dark environment.
An Olympus fluorescence imaging system was used for measuring fluorescence with dual excitation at 340 nm and 380 nm. Changes of [K^+] were calculated as changes of a PBFI ratio.

[4] = In vitro metabolism in liver microsomes, human; format: in vitro ADME; settings: for In vivo inherent clearance rate: from human liver microsomes; for half-life at 0.193 µM: human, liver microsomes, pH 7.4, human liver microsomes, read-out: Half-life obtained after incubation in liver microsomes of human (converted); for microsomal CLint at 0.193 µM: pH 7.4, read-out: Inherent clearance rate in liver microsomes
Experimental: as §1

[5] = tested on: hypertensive mice induced by a high-salt diet; test: Effects on blood pressure of hypertensive mice in vivo (tail-cuff); settings: intragastric, 30 mg/kg; for Mean arterial pressure change value: maximum drop of the blood pressure
Experimental: The blood pressure of mice was determined by using an IITC non-invasive sphygmomanometer and a tail-cuff method. At first, the mice were trained every day for at least a week with half an hour each time. During each test, a systolic blood pressure value, a diastolic blood pressure value, a mean arterial pressure value and a heart rate could be obtained. After adaption, the mice were administered intragastrically with the compounds in Examples 4 and 5 with a dosage of 30 mg/kg, and then the blood pressure of the hypertensive mice was measured within a regular time. According to results, it was shown that after the compound in Example 4 was used, the blood pressure was reduced for only 1.5 h; and after the compound in Example 5 was used, the blood pressure could be reduced for 8 h.
(§2) According to a line chart in FIG. 4, the abscissa referred to time with h as the unit; and the ordinate referred to systolic blood pressure (SBP), mean arterial pressure (MAP) and diastolic blood pressure (DBP) with mmHg as the unit. […] According to a histogram, the ordinate referred to changes of the mean arterial pressure with mmHg as the unit. […] HS referred to the hypertensive mice induced by a high-salt diet (model mice used in in vivo experiments in this example). WT referred to normal wild-type mice. A control group Ctrl referred to model mice administered intragastrically with normal saline rather than the compounds involved in this application.
as §2, with “5,” for “4,”

[6] = In vitro metabolism in liver microsomes, dog; format: in vitro ADME
Experimental: as §1

[7] = In vitro metabolism in liver microsomes, rat; format: in vitro ADME
Experimental: as §1

Structure (SMILES): CCN1CCN(Cc2ccc(NC(=O)NCCCCC(=O)Nc3ccc(F)cc3)cc2)CC1 [Example 5, 5-(3-(4-((4-ethylpiperazin-1-yl)methyl)phenyl)ureido)-N-(4-fluorophenyl)pentaneamide]
- In vivo inherent clearance rate [1]: 7.065 ml · ^1min · kg^−1
- Half-life in liver microsomes ([1]; mouse liver microsomes): 3.35 h
- half-life at 0.193 µM [1]: 4.23 h
- microsomal CLint at 0.193 µM ([1]; mouse liver microsomes): 7.1 µL/min/mg
- Fret efficiency value (average value) (TRPV4-KCa2.3 complex): 7.68
- coupling between the TRPV4 and the KCa2.3 (TRPV4-KCa2.3 complex): enhanced
- metabolism differences between species [2]: no metabolism differences between species
- half-life at 0.193 µM [2]: 4 ± 0.5 h
- outflow ability of the intracellular potassium ions (changes of [K+]) [3]: significantly improved
- In vivo inherent clearance rate [4]: 22.326 ml · ^1min · kg^−1
- Half-life obtained after incubation in liver microsomes of human ([4]; human liver microsomes, 37° C., NADPH): 4.23 h
- half-life at 0.193 µM ([4]; 37° C., NADPH): 3.35 h
- microsomal CLint at 0.193 µM ([4]; human liver microsomes): 5.7 µL/min/mg
- time for which the blood pressure was reduced [5]: 8 h
- Mean arterial pressure change value [5]: 38 mmHg

Structure (SMILES): O=C(NCCCNC(=O)C(c1ccccc1)c1ccccc1)c1nc(=O)c2ccccc2[nH]1 [JNC-440, reference compound]
- Fret efficiency value (average value) (TRPV4-KCa2.3 complex): 5.02
- half-life at 0.193 µM ([4]; 37° C., NADPH): 0.813 h
- Mean arterial pressure change value [5]: 10 mmHg

Structure (SMILES): O=C(Cc1ccncc1)NCCCNC(=O)c1nc(=O)c2ccccc2[nH]1 [Example 1, 4-oxo-N-(3-(2-(pyridin-4-yl)acetamido)propyl)-1,4-dihydroquinazoline-2-carboxamide]
- Fret efficiency value (average value) (TRPV4-KCa2.3 complex): 6.06
- coupling between the TRPV4 and the KCa2.3 (TRPV4-KCa2.3 complex): enhanced

Continued, in another order:

- Fret efficiency value (average value) (TRPV4-KCa2.3 complex): 5.62
- coupling between the TRPV4 and the KCa2.3 (TRPV4-KCa2.3 complex): enhanced
Structure (SMILES): CCN1CCN(Cc2ccc(NC(=O)NCCCNC(=O)c3nc(=O)c4ccccc4[nH]3)cc2)CC1 [Example 3]

- Fret efficiency value (average value) (TRPV4-KCa2.3 complex): 5.98
- coupling between the TRPV4 and the KCa2.3 (TRPV4-KCa2.3 complex): enhanced
Structure (SMILES): O=C(NCCCNC(=O)c1nc(=O)c2ccccc2[nH]1)Nc1ccncc1 [Example 2, 4-oxo-N-(3-(3-(pyridin-4-yl)ureido)propyl)-1,4-dihydroquinazoline-2-carboxamide]

- Fret efficiency value (average value) (TRPV4-KCa2.3 complex): 7.98
- coupling between the TRPV4 and the KCa2.3 (TRPV4-KCa2.3 complex): enhanced
Structure (SMILES): CCN1CCN(Cc2ccc(NC(=O)NCCCCCNC(=O)c3ccc(F)cc3)cc2)CC1 [Example 6]
- outflow ability of the intracellular potassium ions (changes of [K+]) [3]: significantly improved

- In vivo inherent clearance rate ([6]; from dog liver microsomes): 15.91 ml · ^1min · kg^−1
- half-life at 0.193 µM ([6]; pH 7.4, dog liver microsomes): 2.23 h
- microsomal CLint at 0.193 µM ([6]; pH 7.4, dog liver microsomes, read-out: Inherent clearance rate in liver microsomes): 11 µL/min/mg
- In vivo inherent clearance rate [1]: 40.21 ml · ^1min · kg^−1
- half-life at 0.193 µM [1]: 2.34 h
- microsomal CLint at 0.193 µM ([1]; mouse liver microsomes): 10 µL/min/mg
- Fret efficiency value (average value) (TRPV4-KCa2.3 complex): 8.15
- coupling between the TRPV4 and the KCa2.3 (TRPV4-KCa2.3 complex): enhanced
- half-life at 0.193 µM [2]: ~2.5 h
- In vivo inherent clearance rate [4]: 9.43 ml · ^1min · kg^−1
- half-life at 0.193 µM ([4]; 37° C., NADPH): 2.44 h
- microsomal CLint at 0.193 µM ([4]; human liver microsomes): 9.5 µL/min/mg
- In vivo inherent clearance rate ([7]; from rat liver microsomes): 15.07 ml · ^1min · kg^−1
- half-life at 0.193 µM ([7]; pH 7.4, rat liver microsomes): 2.85 h
- microsomal CLint at 0.193 µM ([7]; pH 7.4, rat liver microsomes, read-out: Inherent clearance rate in liver microsomes): 8.4 µL/min/mg
Structure (SMILES): CCN1CCN(Cc2ccc(NC(=O)NCCCCC(=O)Nc3ccccc3)cc2)CC1 [Example 4, 5-(3-(4-((4-ethylpiperazin-1-yl)methyl)phenyl)ureido)-N-phenylpentaneamide]
- metabolism differences between species [2]: no metabolism differences between species
- outflow ability of the intracellular potassium ions (changes of [K+]) [3]: significantly improved
- time for which the blood pressure was reduced [5]: 1.5 h
- Mean arterial pressure change value [5]: 16 mmHg
